This is an account of results in US20080009485A1, “Methods for the use of inhibitors of cytosolic phospholipase A2 in the treatment of thrombosis” (Wyeth, priority 2006, published 2008).

pIC50: −log10 of the molar value.

For data set [1], the system named is Human platelet aggregation. Description: Platelet Function Analyzer (PFA-100) study, whole human blood in vitro. The conditions noted are these: for prolongation of PFA-100 closure time: Collagen/Epinephrine cartridges, 10 minutes incubation, DMSO vehicle 125±13.9 seconds. The class given is cell-based. Here is the method:
Platelet Function Analyzer (PFA-100®) Study
Human platelet aggregation was also studied using the platelet function analyzer (PFA-100®). […] Tubes were inverted 5 times and the blood was transferred to 15 ml polypropylene conical tubes. […] The manufacturers protocol was followed for the PFA-100 using Collagen/Epinephrine cartridges (0.5% DMSO alone in whole blood gave closure times of 125±13.9 seconds). Maximum closure time is 300 seconds, as set by the manufacturer. […] The blood from two mice was pooled to obtain enough blood (800 μl minimum) to conduct each assay.

A further data set concerns the target T1, cPLA2 (Homo sapiens, UniProt P47712).
T1 sequence (P47712 1-749): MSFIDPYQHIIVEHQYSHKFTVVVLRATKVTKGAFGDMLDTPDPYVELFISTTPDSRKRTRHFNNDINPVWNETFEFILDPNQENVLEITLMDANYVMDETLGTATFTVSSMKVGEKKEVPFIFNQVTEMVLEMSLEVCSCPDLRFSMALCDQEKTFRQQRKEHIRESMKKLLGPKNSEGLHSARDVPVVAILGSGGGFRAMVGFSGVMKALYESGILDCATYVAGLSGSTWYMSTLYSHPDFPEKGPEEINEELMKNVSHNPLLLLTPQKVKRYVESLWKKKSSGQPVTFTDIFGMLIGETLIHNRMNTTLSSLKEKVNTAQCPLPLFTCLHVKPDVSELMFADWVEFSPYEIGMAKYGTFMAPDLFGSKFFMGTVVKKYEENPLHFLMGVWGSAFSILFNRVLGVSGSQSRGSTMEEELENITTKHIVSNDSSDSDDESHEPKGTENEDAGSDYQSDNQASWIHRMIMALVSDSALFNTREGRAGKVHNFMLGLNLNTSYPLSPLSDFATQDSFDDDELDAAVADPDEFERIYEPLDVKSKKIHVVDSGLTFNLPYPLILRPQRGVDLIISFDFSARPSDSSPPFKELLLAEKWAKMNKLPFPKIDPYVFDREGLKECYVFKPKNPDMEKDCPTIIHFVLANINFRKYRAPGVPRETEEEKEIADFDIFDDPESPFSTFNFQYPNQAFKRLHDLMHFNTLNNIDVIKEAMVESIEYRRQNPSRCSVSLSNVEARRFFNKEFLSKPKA
Description: Coumarin assay (hydrolysis of 7-hydroxycoumarinyl 6-heptenoate). The conditions noted are these: 60 μM 7-hydroxycoumarinyl 6-heptenoate, 4 μg cPLA2, pH 7.5. The class given is biochemical.

Another data set has as its system platelet aggregation. Description: PFA-100 ex vivo platelet aggregation of chow dosed mice. The class given is in vivo. The conditions noted are these: ApoE knockout mice, 3.3 mg/g chow for 2 days; control 142±16, p<0.02.
Data set [2] can be described thus: Exposure after chow dosing in mice. The following applies: mouse, in vivo, oral; ApoE knockout mice, chow diet supplemented at 3.3 mg/g chow.

Description for cPLA2: Inhibitors were mixed with 200 μL assay buffer (80 mM Hepes, pH 7.5, 1 mM EDTA) containing 60 μM 7-hydroxycoumarinyl 6-heptenoate. The reaction was initiated by adding 4 μg cPLA2 in 50 μL assay buffer. Hydrolysis of the 7-hydroxycounarimyl 6-heptenoate ester was monitored in a fluorometer by exciting at 360 nm and monitoring emission at 460 nm. Enzyme activity is proportional to the increase in emission at 460 nm per minute. In the presence of a cPLA2 inhibitor, the rate of increase is less.

Turning to `CC(=O)Oc1ccccc1C(=O)O` [aspirin, reference compound], in data set [1], the “prolongation of PFA-100 closure time” value is listed as “able to prolong the closure time to varying extents”. `O=C(O)CCc1ccc(S(=O)(=O)CCc2c(CCNS(=O)(=O)Cc3ccccc3Cl)n(C(c3ccccc3)c3ccccc3)c3ccc(Cl)cc23)cc1` [Example 129, 3-[4-({2-[1-Benzhydryl-5-chloro-2-(2-{[(2-chloro-benzyl)sulfonyl]amino}ethyl)-1H-indol-3-yl]ethyl}sulfonyl)phenyl]propanoic acid] had a negative-log IC50 (pIC50) against cPLA2 of 6.89.

As for `NCc1ccccc1S(=O)(=O)NCCc1c(CCCc2ccc(C(=O)O)cc2)c2cc(Cl)ccc2n1C(c1ccccc1)c1ccccc1` [Example 156, 4-(3-{2-[2-({[2-(aminomethyl)phenyl]sulfonyl}amino)ethyl]-1-benzhydryl-5-chloro-1H-indol-3-yl}propyl)benzoic acid], on cPLA2, the pIC50 was 6.80. Still for that read-out and setting: for “2-{2-[1-Benzhydryl-5-chloro-2-(2-phenylmethanesulfonyl-amino-ethyl)-1H-indol-3-yl]-ethoxy}-benzoic acid [Example 283]” the value was 6.30. For the compound `O=C(O)c1ccc(OCCc2c(CCNS(=O)(=O)Cc3ccc(Cl)c(Cl)c3)n(C(c3ccccc3)c3ccccc3)c3ccc(Cl)cc23)cc1F` [Example 296, 4-{2-[1-benzhydryl-5-chloro-2-(2-{[(3,4-dichlorobenzyl)sulfonyl]amino}ethyl)-1H-indol-3-yl]ethoxy}-2-fluorobenzoic acid], the melting point lay within 117 to 119 °C.

On cPLA2, `O=C(O)c1ccc(OCCc2c(CCNS(=O)(=O)Cc3c(Cl)cccc3Cl)n(C(c3ccccc3)c3ccccc3)c3ccc(Cl)cc23)cc1` [Example 73, 4-{2-[1-Benzhydryl-5-chloro-2-(2-{[(2-dichlorobenzyl)sulfonyl]amino}ethyl)-1H-indol-3-yl]ethoxy}benzoic acid] had a pIC50 of 6.52. On the same count and under the same terms, to “4-{2-[1-benzhydryl-5-chloro-2-(2-{[(2,6-dimethylbenzyl)sulfonyl]amino}ethyl)-1H-indol-3-yl]ethoxy}benzoic acid [Example 279]” belongs 6.80; to `O=C(O)c1ccc(OCCc2c(CCNS(=O)(=O)Cc3cnc(Cl)c(Cl)c3)n(C(c3ccccc3)c3ccccc3)c3ccc(Cl)cc23)cc1` [Example 76], 6.40. `O=C(O)c1ccc(OCCc2c(CCNS(=O)(=O)Cc3ccccc3Cl)n(C(c3ccccc3)c3ccccc3)c3ccc(Cl)cc23)cc1F` [Example 297, 4-{2-[1-benzhydryl-5-chloro-2-(2-{[(2-chlorobenzyl)sulfonyl]amino}ethyl)-1H-indol-3-yl]ethoxy}-2-fluorobenzoic acid] gave a melting point of 132 to 135 °C. `O=C(O)c1ccc(OCCc2c(CCNS(=O)(=O)CCN3CC4CC3CO4)n(C(c3ccccc3)c3ccccc3)c3ccc(Cl)cc23)cc1` (stereo not shown) [Example 251, 4-(2-{1-benzhydryl-5-chloro-2-[2-({[2-(2-oxa-5-azabicyclo[2.2.1]hept-5-yl)ethyl]sulfonyl}amino)ethyl]-1H-indol-3-yl}ethoxy)benzoic acid] gave a negative-log IC50 (pIC50) on cPLA2 of 5.82. `CC(C)(Cc1ccc(S(=O)(=O)CCc2c(CCNS(=O)(=O)Cc3ccc(Cl)c(Cl)c3)n(C(c3ccccc3)c3ccccc3)c3ccc(Cl)cc23)cc1)C(=O)O` [Example 298, 3-[4-({2-[1-benzhydryl-5-chloro-2-(2-{[(3,4-dichlorobenzyl)sulfonyl]amino}ethyl)-1H-indol-3-yl]ethyl}sulfonyl)phenyl]-2,2-dimethylpropanoic acid]: the melting point fell in the range of 207 to 208 °C. Turning to `Cc1cccc(C)c1CS(=O)(=O)NCCc1c(CCCc2ccc(C(=O)O)cc2)c2cc(Cl)ccc2n1C(c1ccccc1)c1ccccc1` [Example 52, 4-(3-[1-benzhydryl-5-chloro-2-(2-{[(2,6-dimethylbenzyl)-sulfonyl]amino}ethyl)-1H-indol-3-yl]propyl}benzoic acid], the “prolongation of PFA-100 closure time” value in data set [1] is “able to prolong the closure time to varying extents”. Also, the “relative potency in PFA-100 closure time” value in data set [1] (compared: Examples 44, 52 and aspirin) is “most potent compound”. Consider `O=C(O)c1ccc(CCCc2c(CCNS(=O)(=O)Cc3ccc(Cl)c(Cl)c3)n(C(c3ccccc3)c3ccccc3)c3ccc(Cl)cc23)cc1` [Example 44, 4-{3-[1-benzhydryl-5-chloro-2-(2-{[(3,4-dichlorobenzyl)sulfonyl]amino}ethyl)-1H-indol-3-yl]propyl}benzoic acid], for which, in the data set with platelet aggregation, the “closure time of the PFA-100, ex vivo” value worked out at 194 ± 49 s. The Cmax in data set [2] was around 500 ng/mL. In the case of “4-[2-(1-benzhydryl-5-chloro-2-{2-[({2-[(3R,5S)-3,5-dimethylmorpholin-4-yl]ethyl}sulfonyl)amino]ethyl}-1H-indol-3-yl)ethoxy]benzoic acid [Example 250]”, at cPLA2, the negative-log IC50 (pIC50) is 5.68.
